# Test results published in ChEMBL document CHEMBL1138926, “New pyrrolopyrimidin-6-yl benzenesulfonamides: potent A2B adenosine receptor antagonists” (Bioorg Med Chem Lett, 2006).
# Legend:
# [1] = molecular target: T1, Adenosine receptor A1 (Homo sapiens, UniProt P30542); experiment: Displacement of [3H]DPCPX from human adenosine A1 receptor expressed in CHO cells; type: cell-based
# T1 sequence (P30542 whole entry): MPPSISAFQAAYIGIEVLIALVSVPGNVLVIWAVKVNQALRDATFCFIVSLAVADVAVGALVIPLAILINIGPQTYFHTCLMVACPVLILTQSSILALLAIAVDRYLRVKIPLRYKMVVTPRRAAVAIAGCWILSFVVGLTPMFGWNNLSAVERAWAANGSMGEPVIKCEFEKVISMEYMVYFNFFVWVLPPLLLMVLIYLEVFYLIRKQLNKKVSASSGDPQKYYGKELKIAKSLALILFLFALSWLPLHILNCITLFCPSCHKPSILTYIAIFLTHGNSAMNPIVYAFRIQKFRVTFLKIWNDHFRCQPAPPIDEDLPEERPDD
# [2] = molecular target: T2, Adenosine receptor A3 (Homo sapiens, UniProt P0DMS8); experiment: Displacement of [3H]NECA from human adenosine A3 receptor expressed in HeLa cells; type: cell-based
# T2 sequence (P0DMS8 whole entry): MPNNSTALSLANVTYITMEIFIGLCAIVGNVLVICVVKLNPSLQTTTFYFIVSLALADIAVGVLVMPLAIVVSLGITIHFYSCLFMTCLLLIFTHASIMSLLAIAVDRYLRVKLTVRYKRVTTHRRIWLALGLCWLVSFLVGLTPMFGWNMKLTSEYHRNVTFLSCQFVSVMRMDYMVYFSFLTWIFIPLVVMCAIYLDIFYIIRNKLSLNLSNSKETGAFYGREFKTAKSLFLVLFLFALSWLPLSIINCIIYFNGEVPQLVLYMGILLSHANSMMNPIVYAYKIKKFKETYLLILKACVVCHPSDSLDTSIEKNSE
# [3] = molecular target: T3, Adenosine receptor A2b (Homo sapiens, UniProt P29275); experiment: Displacement of [3H]DPCPX from human adenosine A2B receptor expressed in HEK293 cells; type: cell-based
# T3 sequence (P29275 whole entry): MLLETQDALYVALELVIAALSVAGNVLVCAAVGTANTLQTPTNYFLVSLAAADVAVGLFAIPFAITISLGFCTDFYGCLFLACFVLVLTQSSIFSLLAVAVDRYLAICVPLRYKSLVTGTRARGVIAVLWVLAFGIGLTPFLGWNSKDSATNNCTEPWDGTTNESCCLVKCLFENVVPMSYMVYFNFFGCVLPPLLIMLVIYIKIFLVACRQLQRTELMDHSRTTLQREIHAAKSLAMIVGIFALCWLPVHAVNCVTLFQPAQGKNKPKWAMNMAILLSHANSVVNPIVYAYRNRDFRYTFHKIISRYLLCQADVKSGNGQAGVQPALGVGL
# [4] = molecular target: Adenosine receptors; A1 & A2b (Homo sapiens) (UniProt P30542+P29275); experiment: Selectivity for human adenosine A2B receptor over adenosine A1 receptor; type: protein assay
# [5] = molecular target: Adenosine receptors; A2b & A3 (Homo sapiens) (UniProt P29275+P0DMS8); experiment: Selectivity for human adenosine A2B receptor over adenosine A3 receptor; type: protein assay
# [6] = Solubility of the compound; type: physicochemical
# [7] = AUC in rat at 10 mg/kg, po; type: ADME, organism-based; parameters: dose 10 mg/kg, route oral; settings: plasma
# [8] = Solubility at pH 1.2; type: physicochemical; settings: buffer
# [9] = Tmax in rat at 10 mg/kg, po; type: ADME, organism-based; parameters: dose 10 mg/kg, route oral; settings: in vivo
SMILES,IC50 [1] [µM],IC50 [2] [µM],IC50 [3] [µM],also measured
Cn1c(=O)c2[nH]c(-c3ccc(S(=O)(=O)N4CCN(Cc5ccc(Cl)s5)CC4)cc3)cc2n(C)c1=O,0.102,5.25,,
CCCn1c(=O)n(C)c(=O)c2[nH]c(-c3ccc(S(=O)(=O)N4CCN(Cc5ccc6c(c5)OCO6)CC4)cc3)cc21,0.102,14.9,0.013,
CCCn1c(=O)c2[nH]c(-c3ccc(S(=O)(=O)N4CCN(Cc5ccc(C#N)cc5)CC4)cc3)cc2n(C)c1=O,0.37,0.95,0.006,Selectivity ratio [4]: 62; Selectivity ratio [5]: 160
CN(C1CCN(Cc2ccccc2)CC1)S(=O)(=O)c1ccc(-c2cc3c([nH]2)c(=O)n(C)c(=O)n3C)cc1,,,0.09,
Cn1c(=O)c2[nH]c(-c3ccc(S(=O)(=O)N4CCN(Cc5ccc(Br)cc5)CC4)cc3)cc2n(C)c1=O,0.183,12.3,0.001,Selectivity ratio [4]: 183; Selectivity ratio [5]: 12300
Cn1c(=O)c2[nH]c(-c3ccc(S(=O)(=O)N4CCN(Cc5ccc(F)cc5F)CC4)cc3)cc2n(C)c1=O,0.126,,0.007,
Cn1c(=O)c2[nH]c(-c3ccc(S(=O)(=O)N4CCN(Cc5cccc(F)c5)CC4)cc3)cc2n(C)c1=O,0.152,8.89,,
Cn1c(=O)c2[nH]c(-c3ccc(OCC(=O)Nc4ccc(Br)cc4)cc3)cc2n(C)c1=O,,,,solubility [6]: < 10 µg/mL; AUC [7]: < 20 ng·h/mL
Cn1c(=O)c2[nH]c(-c3ccc(S(=O)(=O)N4CCN(Cc5ccccc5)CC4)cc3)cc2n(C)c1=O,0.415,3.17,,solubility [8]: 70 µg/mL; AUC [7]: 252 ng·h/mL; Tmax [9]: 6 h
Cn1c(=O)c2[nH]c(-c3ccc(S(=O)(=O)N4CCN(Cc5ccncc5)CC4)cc3)cc2n(C)c1=O,,,0.027,
CCn1c(=O)c2[nH]c(-c3ccc(S(=O)(=O)N4CCN(Cc5cccc(F)c5)CC4)cc3)cc2n(CC)c1=O,0.35,21.9,0.015,
CCCn1c(=O)n(C)c(=O)c2[nH]c(-c3ccc(S(=O)(=O)N4CCN(Cc5cccc(F)c5)CC4)cc3)cc21,,,0.017,
CCCn1c(=O)c2[nH]c(-c3ccc(S(=O)(=O)NC4CCN(Cc5ccccc5)CC4)cc3)cc2n(CCC)c1=O,0.059,1.47,0.018,
CCCn1c(=O)c2[nH]c(-c3ccc(S(=O)(=O)NCCc4ccccn4)cc3)cc2n(C)c1=O,0.123,0.844,,
CCn1c(=O)c2[nH]c(-c3ccc(S(=O)(=O)NC4CCN(Cc5ccc(F)cc5)CC4)cc3)cc2n(CC)c1=O,0.205,4.31,0.012,
Cn1c(=O)c2[nH]c(-c3ccc(S(=O)(=O)N4CCN(Cc5ccc(F)cc5)CC4)cc3)cc2n(C)c1=O,,,0.01,
CCn1c(=O)c2[nH]c(-c3ccc(S(=O)(=O)NCCc4ccccn4)cc3)cc2n(CC)c1=O,0.14,18.9,0.075,
Cn1c(=O)c2[nH]c(-c3ccc(S(=O)(=O)N4CCN(c5ccccc5)CC4)cc3)cc2n(C)c1=O,,,0.006,solubility [6]: < 10 µg/mL

# The next lines start with results.
IC50 [1] [µM],IC50 [2] [µM],IC50 [3] [µM],SMILES,also measured
0.068,1.32,,Cn1c(=O)c2[nH]c(-c3ccc(S(=O)(=O)Nc4ccccn4)cc3)cc2n(C)c1=O,
0.054,1.53,,COc1ccc(NS(=O)(=O)c2ccc(-c3cc4c([nH]3)c(=O)n(C)c(=O)n4C)cc2)cn1,
0.012,7.6,0.015,CCCn1c(=O)c2[nH]c(-c3ccc(S(=O)(=O)NCc4ccc(OC)cn4)cc3)cc2n(C)c1=O,
0.101,38,0.02,COc1ccc(CNS(=O)(=O)c2ccc(-c3cc4c([nH]3)c(=O)n(C)c(=O)n4C)cc2)nc1,
0.15,2.08,,Cn1c(=O)c2[nH]c(-c3ccc(S(=O)(=O)NCCc4ccccn4)cc3)cc2n(C)c1=O,solubility [8]: 57 µg/mL; AUC [7]: 985 ng·h/mL; Tmax [9]: 6 h
0.396,6.44,,Cn1c(=O)c2[nH]c(-c3ccc(S(=O)(=O)NCCOc4ccccn4)cc3)cc2n(C)c1=O,
,,0.043,Cn1c(=O)c2[nH]c(-c3ccc(S(=O)(=O)NC4CCN(Cc5ccccc5)CC4)cc3)cc2n(C)c1=O,
